Measured values reported in PubChem BioAssay AID1259407 (Chemical Carcinogenesis Research Information System (CCRIS), 2018).
Active and inactive are the calls of the source. The rule behind the calls is not given here.

Tested on: CCRIS mutagenicity, Ames/micronucleus/aberration tests
Assay: CCRIS mutagenicity studies

In the case of `Cl/C=C\Cl`, the mutagenic call (End Point: IN VITRO CHROMOSOMAL ABERRATIONS, Test System: CHINESE HAMSTER LUNG (CHL), Metabolic Activation: NONE) was “inactive; negative”, the mutagenic call (End Point: IN VITRO CHROMOSOMAL ABERRATIONS, Test System: CHINESE HAMSTER LUNG (CHL), Metabolic Activation: RAT. LIVER, S-9, KC-400) was “inactive; negative” and the mutagenic call (Test System: AMES SALMONELLA TYPHIMURIUM, Strain/Indicator: TA97, Metabolic Activation: HAMSTER LIVER S-9, AROCLOR 1254 (10%), Method: PREINCUBATION) was “inactive; negative”. The mutagenic call (Test System: AMES SALMONELLA TYPHIMURIUM, Strain/Indicator: TA97, Metabolic Activation: HAMSTER LIVER S-9, AROCLOR 1254 (30%), Method: PREINCUBATION) was “inactive; negative”, the mutagenic call (Test System: AMES SALMONELLA TYPHIMURIUM, Strain/Indicator: TA97, Metabolic Activation: HAMSTER, LIVER, S-9, AROCLOR 1254 (10%), Method: PREINCUBATION) was “inactive; negative” and the mutagenic call (Test System: AMES SALMONELLA TYPHIMURIUM, Strain/Indicator: TA97, Metabolic Activation: HAMSTER, LIVER, S-9, AROCLOR 1254 (30%), Method: PREINCUBATION) was “inactive; negative”. The mutagenic call (Test System: AMES SALMONELLA TYPHIMURIUM, Strain/Indicator: TA97, Metabolic Activation: NONE, Method: PREINCUBATION) was “inactive; negative”, the mutagenic call (Test System: AMES SALMONELLA TYPHIMURIUM, Strain/Indicator: TA97, Metabolic Activation: RAT LIVER S-9, AROCLOR 1254 (10% OR 30%), Method: PREINCUBATION) was “inactive; negative” and the mutagenic call (Test System: AMES SALMONELLA TYPHIMURIUM, Strain/Indicator: TA97, Metabolic Activation: RAT, LIVER, S-9, AROCLOR 1254 (10 OR 30%), Method: PREINCUBATION) was “inactive; negative”. For the same compound, the mutagenic call (Test System: AMES SALMONELLA TYPHIMURIUM, Strain/Indicator: TA98, Metabolic Activation: HAMSTER LIVER S-9, AROCLOR 1254 (10%), Method: PREINCUBATION) was “inactive; negative”, the mutagenic call (Test System: AMES SALMONELLA TYPHIMURIUM, Strain/Indicator: TA98, Metabolic Activation: HAMSTER LIVER S-9, AROCLOR 1254 (30%), Method: PREINCUBATION) was “inactive; negative” and the mutagenic call (Test System: AMES SALMONELLA TYPHIMURIUM, Strain/Indicator: TA98, Metabolic Activation: HAMSTER, LIVER, S-9, AROCLOR 1254 (10%), Method: PREINCUBATION) was “inactive; negative”. For the same compound, the mutagenic call (Test System: AMES SALMONELLA TYPHIMURIUM, Strain/Indicator: TA98, Metabolic Activation: HAMSTER, LIVER, S-9, AROCLOR 1254 (30%), Method: PREINCUBATION) was “inactive; negative”, the mutagenic call (Test System: AMES SALMONELLA TYPHIMURIUM, Strain/Indicator: TA98, Metabolic Activation: NONE, Method: PREINCUBATION) was “inactive; negative” and the mutagenic call (Test System: AMES SALMONELLA TYPHIMURIUM, Strain/Indicator: TA98, Metabolic Activation: RAT LIVER S-9, AROCLOR 1254 (10% OR 30%), Method: PREINCUBATION) was “inactive; negative”. The mutagenic call (Test System: AMES SALMONELLA TYPHIMURIUM, Strain/Indicator: TA98, Metabolic Activation: RAT, LIVER, S-9, AROCLOR 1254 (10 OR 30%), Method: PREINCUBATION) was “inactive; negative”, the mutagenic call (Test System: AMES SALMONELLA TYPHIMURIUM, Strain/Indicator: TA100, Metabolic Activation: HAMSTER LIVER S-9, AROCLOR 1254 (10%), Method: PREINCUBATION) was “inactive; negative” and the mutagenic call (Test System: AMES SALMONELLA TYPHIMURIUM, Strain/Indicator: TA100, Metabolic Activation: HAMSTER LIVER S-9, AROCLOR 1254 (30%), Method: PREINCUBATION) was “inactive; negative”. For the same compound, the mutagenic call (Test System: AMES SALMONELLA TYPHIMURIUM, Strain/Indicator: TA100, Metabolic Activation: HAMSTER, LIVER, S-9, AROCLOR 1254 (10%), Method: PREINCUBATION) was “inactive; negative”, the mutagenic call (Test System: AMES SALMONELLA TYPHIMURIUM, Strain/Indicator: TA100, Metabolic Activation: HAMSTER, LIVER, S-9, AROCLOR 1254 (30%), Method: PREINCUBATION) was “inactive; negative” and the mutagenic call (Test System: AMES SALMONELLA TYPHIMURIUM, Strain/Indicator: TA100, Metabolic Activation: NONE, Method: PREINCUBATION) was “inactive; negative”. For the same compound, the mutagenic call (Test System: AMES SALMONELLA TYPHIMURIUM, Strain/Indicator: TA100, Metabolic Activation: RAT LIVER S-9, AROCLOR 1254 (10% OR 30%), Method: PREINCUBATION) was “inactive; negative”, the mutagenic call (Test System: AMES SALMONELLA TYPHIMURIUM, Strain/Indicator: TA100, Metabolic Activation: RAT, LIVER, S-9, AROCLOR 1254 (10 OR 30%), Method: PREINCUBATION) was “inactive; negative” and the mutagenic call (Test System: AMES SALMONELLA TYPHIMURIUM, Strain/Indicator: TA1535, Metabolic Activation: HAMSTER LIVER S-9, AROCLOR 1254 (10%), Method: PREINCUBATION) was “inactive; negative”. The mutagenic call (Test System: AMES SALMONELLA TYPHIMURIUM, Strain/Indicator: TA1535, Metabolic Activation: HAMSTER, LIVER, S-9, AROCLOR 1254 (10%), Method: PREINCUBATION) was “inactive; negative”, the mutagenic call (Test System: AMES SALMONELLA TYPHIMURIUM, Strain/Indicator: TA1535, Metabolic Activation: HAMSTER, LIVER, S-9, AROCLOR 1254 (30%), Method: PREINCUBATION) was “inactive; negative” and the mutagenic call (Test System: AMES SALMONELLA TYPHIMURIUM, Strain/Indicator: TA1535, Metabolic Activation: NONE, Method: PREINCUBATION) was “inactive; negative”. The mutagenic call (Test System: AMES SALMONELLA TYPHIMURIUM, Strain/Indicator: TA1535, Metabolic Activation: RAT LIVER S-9, AROCLOR 1254 (10% OR 30%), Method: PREINCUBATION) was “inactive; negative”, the mutagenic call (Test System: AMES SALMONELLA TYPHIMURIUM, Strain/Indicator: TA1535, Metabolic Activation: RAT, LIVER, S-9, AROCLOR 1254 (10 OR 30%), Method: PREINCUBATION) was “inactive; negative” and the mutagenic call (Test System: AMES SALMONELLA TYPHIMURIUM, Strain/Indicator: TA1537, Metabolic Activation: HAMSTER LIVER S-9, AROCLOR 1254 (30%), Method: PREINCUBATION) was “inactive; negative”. The mutagenic call (Test System: AMES SALMONELLA TYPHIMURIUM, Strain/Indicator: TA1537, Metabolic Activation: HAMSTER, LIVER, S-9, AROCLOR 1254 (30%), Method: PREINCUBATION) was “inactive; negative”, the mutagenic call (Test System: AMES SALMONELLA TYPHIMURIUM, Strain/Indicator: TA1537, Metabolic Activation: NONE, Method: PREINCUBATION) was “inactive; negative” and the mutagenic call (Test System: AMES SALMONELLA TYPHIMURIUM, Strain/Indicator: TA1537, Metabolic Activation: RAT LIVER S-9, AROCLOR 1254 (30%), Method: PREINCUBATION) was “inactive; negative”. The mutagenic call (Test System: AMES SALMONELLA TYPHIMURIUM, Strain/Indicator: TA1537, Metabolic Activation: RAT, LIVER, S-9, AROCLOR 1254 (30%), Method: PREINCUBATION) was “inactive; negative”.
For `NC(=O)c1nnn(Cc2cc(Cl)c(C(=O)c3ccc(Cl)cc3)c(Cl)c2)c1N`, the mutagenic call (Test System: Mouse lymphoma, Strain/Indicator: L5178Y (tk+/tk-), Metabolic Activation: None, Method: Suspension/plate) was “inactive; inconclusive (previous evaluation negative)” and the mutagenic call (Test System: Mouse lymphoma, Strain/Indicator: L5178Y (tk+/tk-), Metabolic Activation: Rat, Liver, S-9, Aroclor 1254, Method: Suspension/plate) was “inactive; negative”.
With `FC(F)(Cl)Cl` the mutagenic call (Test System: AMES SALMONELLA TYPHIMURIUM, Strain/Indicator: TA98, Metabolic Activation: NONE, Method: GAS EXPOSURE) was “inactive; negative”, the mutagenic call (Test System: AMES SALMONELLA TYPHIMURIUM, Strain/Indicator: TA98, Metabolic Activation: RAT LIVER S-9, PHENOBARBITAL AND BETA-NAPHTHOFLAVONE (40%), Method: GAS EXPOSURE) was “inactive; negative” and the mutagenic call (Test System: AMES SALMONELLA TYPHIMURIUM, Strain/Indicator: TA100, Metabolic Activation: NONE, Method: GAS EXPOSURE) was “inactive; negative”. For the same compound, the mutagenic call (Test System: AMES SALMONELLA TYPHIMURIUM, Strain/Indicator: TA100, Metabolic Activation: RAT LIVER S-9, PHENOBARBITAL AND BETA-NAPHTHOFLAVONE (40%), Method: GAS EXPOSURE) was “inactive; negative”, the mutagenic call (Test System: AMES SALMONELLA TYPHIMURIUM, Strain/Indicator: TA1535, Metabolic Activation: NONE, Method: GAS EXPOSURE) was “inactive; negative” and the mutagenic call (Test System: AMES SALMONELLA TYPHIMURIUM, Strain/Indicator: TA1535, Metabolic Activation: RAT LIVER S-9, PHENOBARBITAL AND BETA-NAPHTHOFLAVONE (40%), Method: GAS EXPOSURE) was “inactive; negative”. The mutagenic call (Test System: AMES SALMONELLA TYPHIMURIUM, Strain/Indicator: TA1537, Metabolic Activation: NONE, Method: GAS EXPOSURE) was “inactive; negative”, the mutagenic call (Test System: AMES SALMONELLA TYPHIMURIUM, Strain/Indicator: TA1537, Metabolic Activation: RAT LIVER S-9, PHENOBARBITAL AND BETA-NAPHTHOFLAVONE (40%), Method: GAS EXPOSURE) was “inactive; negative” and the mutagenic call (Test System: E.COLI, Strain/Indicator: WP2UVRA, Metabolic Activation: NONE, Method: GAS EXPOSURE) was “inactive; negative”. The mutagenic call (Test System: E.COLI, Strain/Indicator: WP2UVRA, Metabolic Activation: RAT LIVER S-9, PHENOBARBITAL AND BETA-NAPHTHOFLAVONE (40%), Method: GAS EXPOSURE) was “inactive; negative”.
With `O=C1CCc2c1cc(C(F)(F)F)c1c2ccc2ccccc21` the mutagenic call (Test System: AMES SALMONELLA TYPHIMURIUM, Strain/Indicator: TA100, Metabolic Activation: RAT, LIVER, S-9, AROCLOR 1254) was “active; positive”.
